# Laboratory results from patent US10071086B2, “1H-pyrazolo[3,4-b]pyridines and therapeutic uses thereof” (Samumed, LLC, priority 2012, dated 2018).
# System: Wnt pathway
# Test: Wnt activity reporter assay (SP5 promoter-luciferase in SW480 cells)
# Format: cell-based
# Details: Homo sapiens, SP5 promoter firefly luciferase reporter, read-out: Wnt inhibition
# Description: The above synthesized compounds were screened using the assay procedure for Wnt activity described below.
# Reporter cell lines can be generated by stably transducing cells of cancer cell lines (e.g., colon cancer) with a lentiviral construct that include a wnt-responsive promoter driving expression of the firefly luciferase gene.
# Lentiviral constructs can be made in which the SP5 promoter, a promoter having eight TCF/LEF binding sites derived from the SP5 promoter, is linked upstream of the firefly luciferase gene. The lentiviral constructs can also include a hygromycin resistance gene as a selectable marker. The SP5 promoter construct can be used to transduce SW480 cells, a colon cancer cell line having a mutated APC gene that generates a truncated APC protein, leading to de-regulated accumulation of β-catenin.
# Cultured SW480 cells bearing a reporter construct can be distributed at approximately 10,000 cells per well into 96 well or 384 well plates. Compounds from a small molecule compound library can then be added to the wells in half-log dilutions using a ten micromolar top concentration. A series of control wells for each cell type receive only buffer and compound solvent. Twenty-four to forty hours after the addition of compound, reporter activity for luciferase can be assayed, for example, by addition of the BrightGlo luminescence reagent (Promega) and the Victor3 plate reader (Perkin Elmer). Readings can be normalized to DMSO only treated cells, and normalized activities can then be used in the IC50 calculations.
row,Compound,IC50
1,"O=C(Nc1cncc(-c2cnc3[nH]nc(-c4nc5c(-c6ccccn6)cncc5[nH]4)c3c2)c1)C1CCC1 [Compound 229, N-(5-(3-(7-(Pyridin-2-yl)-3H-imidazo[4,5-c]pyridin-2-yl)-1H-pyrazolo[3,4-b]pyridin-5-yl)pyridin-3-yl)cyclobutanecarboxamide]",0.012 µM
2,"Nc1cncc(-c2cnc3[nH]nc(-c4nc5c(N6CCCCC6)cncc5[nH]4)c3c2)c1 [Compound 238, 5-(3-(7-(Piperidin-1-yl)-3H-imidazo[4,5-c]pyridin-2-yl)-1H-pyrazolo[3,4-b]pyridin-5-yl)pyridin-3-amine]",0.35 µM
3,"CCNCc1cncc(-c2cnc3[nH]nc(-c4nc5c(N6CCCCC6)cncc5[nH]4)c3c2)c1 [Compound 241, N-((5-(3-(7-(Piperidin-1-yl)-3H-imidazo[4,5-c]pyridin-2-yl)-1H-pyrazolo[3,4-b]pyridin-5-yl)pyridin-3-yl)methyl)ethanamine]",0.19 µM
4,"O=C(Nc1cncc(-c2cnc3[nH]nc(-c4nc5c(N6CCCCC6)cncc5[nH]4)c3c2)c1)c1ccccc1 [Compound 246, N-(5-(3-(7-(Piperidin-1-yl)-3H-imidazo[4,5-c]pyridin-2-yl)-1H-pyrazolo[3,4-b]pyridin-5-yl)pyridin-3-yl)benzamide]",1.27 µM
5,"c1ncc(-c2cnc3[nH]nc(-c4nc5c(N6CCCCC6)cncc5[nH]4)c3c2)cc1CN1CCCC1 [Compound 249, 3-(7-(Piperidin-1-yl)-3H-imidazo[4,5-c]pyridin-2-yl)-5-(5-(pyrrolidin-1-ylmethyl)pyridin-3-yl)-1H-pyrazolo[3,4-b]pyridine]",10 µM
6,"O=C(Nc1cncc(-c2cnc3[nH]nc(-c4nc5c(N6CCCCC6)cncc5[nH]4)c3c2)c1)C1CC1 [Compound 254, N-(5-(3-(7-(Piperidin-1-yl)-3H-imidazo[4,5-c]pyridin-2-yl)-1H-pyrazolo[3,4-b]pyridin-5-yl)pyridin-3-yl)cyclopropanecarboxamide]",0.235 µM
7,"CCCCC(=O)Nc1cncc(-c2cnc3[nH]nc(-c4nc5c(N6CCN(C)CC6)cncc5[nH]4)c3c2)c1 [Compound 305, N-(5-(3-(7-(4-Methylpiperazin-1-yl)-3H-imidazo[4,5-c]pyridin-2-yl)-1H-pyrazolo[3,4-b]pyridin-5-yl)pyridin-3-yl)pentanamide]",7.35 µM
8,"CN1CCN(c2cncc3[nH]c(-c4n[nH]c5ncc(-c6cncc(NC(=O)C7CCCCC7)c6)cc45)nc23)CC1 [Compound 309, N-(5-(3-(7-(4-Methylpiperazin-1-yl)-3H-imidazo[4,5-c]pyridin-2-yl)-1H-pyrazolo[3,4-b]pyridin-5-yl)pyridin-3-yl)cyclohexanecarboxamide]",1.02 µM
9,"CC(C)Nc1cncc(-c2cnc3[nH]nc(-c4nc5ccncc5[nH]4)c3c2)c1 [Compound 325, 5-(3-(3H-Imidazo[4,5-c]pyridin-2-yl)-1H-pyrazolo[3,4-b]pyridin-5-yl)-N-isopropylpyridin-3-amine]",0.058 µM
10,"c1ccc(CNCc2cncc(-c3cnc4[nH]nc(-c5nc6ccncc6[nH]5)c4c3)c2)cc1 [Compound 336, 1-(5-(3-(3H-Imidazo[4,5-c]pyridin-2-yl)-1H-pyrazolo[3,4-b]pyridin-5-yl)pyridin-3-yl)-N-benzylmethanamine]",0.79 µM
11,"CN(C)c1cncc(-c2cnc3[nH]nc(-c4nc5c(-c6ccsc6)cncc5[nH]4)c3c2)c1 [Compound 346, N,N-Dimethyl-5-(3-(7-(thiophen-3-yl)-3H-imidazo[4,5-c]pyridin-2-yl)-1H-pyrazolo[3,4-b]pyridin-5-yl)pyridin-3-amine]",0.056 µM
12,"CN(C)Cc1cncc(-c2cnc3[nH]nc(-c4nc5c(-c6ccsc6)cncc5[nH]4)c3c2)c1 [Compound 352, N,N-Dimethyl-1-(5-(3-(7-(thiophen-3-yl)-3H-imidazo[4,5-c]pyridin-2-yl)-1H-pyrazolo[3,4-b]pyridin-5-yl)pyridin-3-yl)methanamine]",0.057 µM
13,"c1cc(-c2cncc3[nH]c(-c4n[nH]c5ncc(-c6cncc(CN7CCCCC7)c6)cc45)nc23)cs1 [Compound 354, 5-(5-(Piperidin-1-ylmethyl)pyridin-3-yl)-3-(7-(thiophen-3-yl)-3H-imidazo[4,5-c]pyridin-2-yl)-1H-pyrazolo[3,4-b]pyridine]",0.293 µM
14,"CC(C)(C)C(=O)Nc1cncc(-c2cnc3[nH]nc(-c4nc5c(-c6ccoc6)cncc5[nH]4)c3c2)c1 [Compound 373, N-(5-(3-(7-(Furan-3-yl)-3H-imidazo[4,5-c]pyridin-2-yl)-1H-pyrazolo[3,4-b]pyridin-5-yl)pyridin-3-yl)pivalamide]",0.07 µM
15,"O=C(Nc1cncc(-c2cnc3[nH]nc(-c4nc5c(-c6ccoc6)cncc5[nH]4)c3c2)c1)c1ccccc1 [Compound 376, N-(5-(3-(7-(Furan-3-yl)-3H-imidazo[4,5-c]pyridin-2-yl)-1H-pyrazolo[3,4-b]pyridin-5-yl)pyridin-3-yl)benzamide]",0.051 µM
16,"CCCC(=O)Nc1cncc(-c2cnc3[nH]nc(-c4nc5c(-c6ccoc6)cncc5[nH]4)c3c2)c1 [Compound 382, N-(5-(3-(7-(Furan-3-yl)-3H-imidazo[4,5-c]pyridin-2-yl)-1H-pyrazolo[3,4-b]pyridin-5-yl)pyridin-3-yl)butyramide]",0.003 µM
17,"CCC(=O)Nc1cncc(-c2cnc3[nH]nc(-c4nc5c(-c6cccs6)cncc5[nH]4)c3c2)c1 [Compound 440, N-(5-(3-(7-(Thiophen-2-yl)-3H-imidazo[4,5-c]pyridin-2-yl)-1H-pyrazolo[3,4-b]pyridin-5-yl)pyridin-3-yl)propionamide]",0.004 µM
18,"c1cncc(-c2cnc3[nH]nc(-c4nc5c(-c6cccs6)cncc5[nH]4)c3c2)c1 [Compound 443, 5-(Pyridin-3-yl)-3-(7-(thiophen-2-yl)-3H-imidazo[4,5-c]pyridin-2-yl)-1H-pyrazolo[3,4-b]pyridine]",0.001 µM
19,"O=C(Nc1cncc(-c2cnc3[nH]nc(-c4nc5c(-c6cccs6)cncc5[nH]4)c3c2)c1)C1CC1 [Compound 458, N-(5-(3-(7-(Thiophen-2-yl)-3H-imidazo[4,5-c]pyridin-2-yl)-1H-pyrazolo[3,4-b]pyridin-5-yl)pyridin-3-yl)cyclopropanecarboxamide]",0.022 µM
20,"c1csc(-c2cncc3[nH]c(-c4n[nH]c5ncc(-c6cncc(CNCC7CCCC7)c6)cc45)nc23)c1 [Compound 463, 1-Cyclopentyl-N-((5-(3-(7-(thiophen-2-yl)-3H-imidazo[4,5-c]pyridin-2-yl)-1H-pyrazolo[3,4-b]pyridin-5-yl)pyridin-3-yl)methyl)methanamine]",0.098 µM
21,"CCNCc1cncc(-c2cnc3[nH]nc(-c4nc5c(-c6cccc(F)c6)cccc5[nH]4)c3c2)c1 [Compound 547, N-((5-(3-(4-(3-Fluorophenyl)-1H-benzo[d]imidazol-2-yl)-1H-pyrazolo[3,4-b]pyridin-5-yl)pyridin-3-yl)methyl)ethanamine]",0.097 µM
22,"CC(C)Nc1cncc(-c2cnc3[nH]nc(-c4nc5c(-c6cccc(F)c6)cccc5[nH]4)c3c2)c1 [Compound 551, 5-(3-(4-(3-Fluorophenyl)-1H-benzo[d]imidazol-2-yl)-1H-pyrazolo[3,4-b]pyridin-5-yl)-N-isopropylpyridin-3-amine]",0.033 µM
23,"CN(C)Cc1cncc(-c2cnc3[nH]nc(-c4nc5c(-c6cccc(F)c6)cccc5[nH]4)c3c2)c1 [Compound 552, 1-(5-(3-(4-(3-Fluorophenyl)-1H-benzo[d]imidazol-2-yl)-1H-pyrazolo[3,4-b]pyridin-5-yl)pyridin-3-yl)-N,N-dimethylmethanamine]",0.022 µM
24,"Fc1cccc(-c2cccc3[nH]c(-c4n[nH]c5ncc(-c6cncc(CN7CCCCC7)c6)cc45)nc23)c1 [Compound 554, 3-(4-(3-Fluorophenyl)-1H-benzo[d]imidazol-2-yl)-5-(5-(piperidin-1-ylmethyl)pyridin-3-yl)-1H-pyrazolo[3,4-b]pyridine]",0.2 µM
25,"CCCCC(=O)Nc1cncc(-c2cnc3[nH]nc(-c4nc5c(-c6cccc(F)c6)cccc5[nH]4)c3c2)c1 [Compound 557, N-(5-(3-(4-(3-Fluorophenyl)-1H-benzo[d]imidazol-2-yl)-1H-pyrazolo[3,4-b]pyridin-5-yl)pyridin-3-yl)pentanamide]",0.053 µM
26,"O=C(Nc1cncc(-c2cnc3[nH]nc(-c4nc5c(-c6cccc(F)c6)cccc5[nH]4)c3c2)c1)C1CCCC1 [Compound 560, N-(5-(3-(4-(3-Fluorophenyl)-1H-benzo[d]imidazol-2-yl)-1H-pyrazolo[3,4-b]pyridin-5-yl)pyridin-3-yl)cyclopentanecarboxamide]",0.09 µM
27,"O=C(Nc1cncc(-c2cnc3[nH]nc(-c4nc5c(-c6cccc(F)c6)cccc5[nH]4)c3c2)c1)C1CCCCC1 [Compound 561, N-(5-(3-(4-(3-Fluorophenyl)-1H-benzo[d]imidazol-2-yl)-1H-pyrazolo[3,4-b]pyridin-5-yl)pyridin-3-yl)cyclohexanecarboxamide]",0.143 µM
28,"O=C(Nc1cncc(-c2cnc3[nH]nc(-c4nc5c(-c6ccc(F)cc6)cccc5[nH]4)c3c2)c1)c1ccccc1 [Compound 573, N-(5-(3-(4-(4-Fluorophenyl)-1H-benzo[d]imidazol-2-yl)-1H-pyrazolo[3,4-b]pyridin-5-yl)pyridin-3-yl)benzamide]",0.082 µM
29,"O=C(Nc1cncc(-c2cnc3[nH]nc(-c4nc5c(-c6ccc(F)cc6)cccc5[nH]4)c3c2)c1)C1CC1 [Compound 581, N-(5-(3-(4-(4-Fluorophenyl)-1H-benzo[d]imidazol-2-yl)-1H-pyrazolo[3,4-b]pyridin-5-yl)pyridin-3-yl)cyclopropanecarboxamide]",0.048 µM
